The values that follow come from patent US20050244983A1, “Method for measuring antioxidant status” (The Western Australian Centre for Pathology and Medical …, priority 2002, published 2005).

The nature of assay [1]: AIOR assay (antioxidant inhibition of radical assay): uroporphyrin I fluorescence decay with AAPH, area under curve against Trolox standard curve. Format: biochemical. To be noted: for Antioxidant Status (mM) Trolox Equivalent Calculated 1/16 Dilution: calculated from the observed ¼ dilution value; for Antioxidant Status Trolox Equivalent (mM) of the observed individual ¼ Dilution: individual polyphenol; for Antioxidant Status Trolox Equivalent (mM) of the observed individual ¼ Dilution / Antioxidant status in mM Trolox equivalent, High value / Antioxidant status in mM Trolox equivalent, Low value / Antioxidant status in mM Trolox equivalent, Mean value: n=9; for antioxidant activity of solvent (in words) / Antioxidant status in mM Trolox equivalent, High value / Antioxidant status in mM Trolox equivalent, Low value / Antioxidant status in mM Trolox equivalent, Mean value: solvent compared against blank; for Area Under Curve (mean ± SD): uroporphyrin 1/1000, ratio 1:45:280, n=6. As for the experimental part:
The stock phosphate buffer (0.75 M, pH 7.0) was prepared by mixing 61.1:38.9 (v/v) of a 0.75 M K2HPO4 and a 0.75 M NaH2PO4 solution. The working phosphate buffer 75 mM, pH 7.0 was prepared by a 1:9 (v/v) dilution of the 0.75 M stock phosphate buffer.
AAPH (583 mM) was prepared by dissolving completely 0.474 g of AAPH in 3 mL of 75 mM, pH 7.0 phosphate buffer. This solution was prepared freshly before each run.
Uroporphyrin stock solution (225 μM) was prepared by dissolving 1.2 mg of uroporphyrin I dihydrochloride in 5.9 mL of phosphate buffer (75 mM, pH 7.0). This solution was very stable for many months by storing in the dark at 4° C. A secondary uroporphyrin stock solution for routine use was prepared by a 1:50 (v/v) dilution of the stock uroporphyrin solution with phosphate buffer (75 mM, pH 7.0). This secondary stock solution was stable for several months in the dark at 4° C. A working uroporphyrin solution for daily use was prepared by a 1:750 (v/v) dilution of the secondary uroporphyrin solution with phosphate buffer (75 mM, pH 7.0).
To enable complete solubility of both hydrophobic and hydrophilic compounds in the sample, a surfactant Brij 35™ was added to the working uroporphyrin solution in the quantity of 0.1% of the reagent.
Trolox was used as an antioxidant standard to compare the antioxidant status of various inorganic and organic matter. A stock Trolox standard solution (5.0 mM) was prepared by dissolving Trolox 35 (250 mg) in 200 mL of phosphate buffer (75 mM, pH 7.0). Working standards of Trolox were prepared by diluting the stock Trolox standard to 0.5, 1.0 and 2.0 mM with the same buffer.
Sample/blank/standard (1 μL), and working uroporphyrin solution (0.300 uM) with Brij™ (136 μL) were added to the wells of a 96-well microplate. Blank, standards or diluted samples were added first into the well, followed by working uroporphyrin solution with Brij™. The contents of each well was mixed using a plateshaker for 1-2 minutes. Freshly prepared AAPH solution […] (22 μL) was then added. This procedure provided a sample to AAPH to uroporphyrin ratio of (1:22:136). The contents of the wells were then mixed again for exactly 2 minutes before acquisition of data with the Varian Cary Eclipse fluorescence spectrophotometer. A sample to reagent ratio of (2:30:186) was also used to further improve the precision of the assay.
The Varian Cary Eclipse fluorescence spectrophotometer settings were as follows. • Excitation λ=397 nm; Emission λ=615 nm. • Excitation Slit=20 nm; Emission Slit=10 nm. • Ave Time=0.2 sec. • Run Time=180 minutes. • Y (min-max)=0-1000. • Excitation Filter: Auto. • Emission Filter: Open. • PMT: Variable (Choice of low, medium or high).
The method takes the free radical action to completion in 180 minutes. The Varian Cary Eclipse fluorescence spectrophotometer has the ability to achieve high throughput of 96 samples in 180 minutes with the 96-wellplate format. […] This invention provides both a method and reagent, which can accurately, easily, economically, and quickly analyze antioxidant status.
The results of the analysis were normalized by Varian Cary Eclipse software and calculated by GraphPad Prism 4.0 software (GraphPad Software, Inc., San Diego Calif., 2003).

Assay in assay [2]: as above
Format: biochemical. To be noted: for Area Under Curve (mean ± SD): uroporphyrin 1/1000, ratio 1:45:280, n=6.

Values joined by “and” are separate entries in the source; they are usually repeats but may differ in a detail not shown here. Equal values may be shown once.

Consider `O=c1c(O)c(-c2ccc(O)c(O)c2)oc2cc(O)cc(O)c12` [Quercetin], for which, in assay [1], the “Antioxidant Status (mM) Trolox Equivalent Calculated 1/16 Dilution” value was 1.10 mM and the “Antioxidant Status Trolox Equivalent (mM) of the observed individual ¼ Dilution” value is on record as 4.41 ± 0.44 mM. The “Antioxidant Status Trolox Equivalent (mM ± SD)” value in assay [1] (polyphenol 0.25 mM in ethanol) amounted to 1.82 ± 0.13 mM. For the same compound, the “Antioxidant Status Trolox Equivalent (mM ± SD)” value in assay [1] (polyphenol 0.5 mM in ethanol) was 4.58 ± 0.24 mM.

As for Vitamin E, the “Antioxidant Status in Trolox Equivalent (mM ± SD)” value amounted to 0.4 ± 0.1 mM in assay [1] (vitamin E 952 μM in isopropanol, n=10); 0.4 mM in assay [1] (vitamin E 952 μM in isopropanol, n=10, listed as vitamin E); 1.1 ± 0.1 mM in assay [1] (vitamin E 1905 μM in isopropanol, n=10); 1.1 mM in assay [1] (vitamin E 1905 μM in isopropanol, n=10, listed as vitamin E); 2.7 ± 0.1 mM in assay [1] (vitamin E 3810 μM in isopropanol, n=10); 2.7 mM in assay [1] (vitamin E 3810 μM in isopropanol, n=10, listed as vitamin E).

`CC(C)O` [Isopropanol]: in assay [1], the “antioxidant activity of solvent (in words)” value (from here on “antioxidant activity”) is on record as “no antioxidant activity”; the “Antioxidant status in mM Trolox equivalent, High value” (“Antioxidant status … High value” for short) was 0.1 mM; the “Antioxidant status in mM Trolox equivalent, Low value” (from here on “Antioxidant status … Low value”) came to 0.0 mM; the “Antioxidant status in mM Trolox equivalent, Mean value” (“Antioxidant status … Mean value” for short) is 0.04 mM.

With `CCO` [Ethanol], in assay [1], the “antioxidant activity” value is “no antioxidant activity”; the “Antioxidant status … High value” was 0.1 mM; the “Antioxidant status … Low value” stood at 0.0 mM; the “Antioxidant status … Mean value” is 0.08 mM.

Take `O=c1[nH]c(=O)c2[nH]c(=O)[nH]c2[nH]1` [Uric Acid, Uric acid]: the “Antioxidant Status in Trolox Equivalent (mM ± SD)” value amounted to 0.6 ± 0.1 mM in assay [1] (uric acid 424 μM in phosphate buffer, n=12); 0.6 mM in assay [1] (uric acid 424 μM in phosphate buffer, n=12, listed as uric acid); 1.2 ± 0.1 mM in assay [1] (uric acid 848 μM in phosphate buffer, n=12); 1.2 mM in assay [1] (uric acid 848 μM in phosphate buffer, n=12, listed as uric acid); 2.4 ± 0.1 mM in assay [1] (uric acid 1696 μM in phosphate buffer, n=12); 2.4 mM in assay [1] (uric acid 1696 μM in phosphate buffer, n=12, listed as uric acid). Besides, the “estimation of mean antioxidant status, Trolox equivalent” value in assay [1] (uric acid at physiological upper range for female, 340 μmol/L) is 0.48 mM; in assay [1] (uric acid at physiological upper range for male, 420 μmol/L) it was 0.59 mM.

Consider `Cc1c(C)c2c(c(C)c1O)CCC(C)(C(=O)O)O2` (racemic) [Trolox, (±)6-hydroxy-2,5,7,8-tetramethylchromane-2-carboxylic acid], for which the “Area Under Curve (mean ± SD)” value came out at 35554 ± 2267 in assay [1] (STD 1.0 mM, AAPH 640 mM); 77238 ± 3701 in assay [1] (STD 4.0 mM, AAPH 583 mM); 40829 ± 4000 in assay [2] (STD 1.0 mM, AAPH 583 mM); 55416 ± 3207 in assay [2] (STD 2.0 mM, AAPH 583 mM); 44522 ± 2348 in assay [2] (STD 2.0 mM, AAPH 640 mM); 69220 ± 6603 in assay [2] (STD 4.0 mM, AAPH 640 mM). The “Mean Area Under Curve” value in assay [1] (Trolox 0.5 mM, 20 μL Brij 35 per 15 mL working uroporphyrin solution, n=24) turned out to be 45482; in assay [1] (Trolox 0.5 mM, 100 μL Brij 35 per 15 mL working uroporphyrin solution, n=24), 52714; in assay [1] (Trolox 0.5 mM, intra-assay precision, n=16) it was 47456; in assay [1] (Trolox 1.0 mM, 20 μL Brij 35 per 15 mL working uroporphyrin solution, n=24), 57154; in assay [1] (Trolox 1.0 mM, 100 μL Brij 35 per 15 mL working uroporphyrin solution, n=24) it was 61482; in assay [1] (Trolox 1.0 mM, intra-assay precision, n=16) it was 57535. Besides, the “Mean Area Under Curve” value in assay [1] (Trolox 2.0 mM, 20 μL Brij 35 per 15 mL working uroporphyrin solution, n=24) is listed as 72596; in assay [1] (Trolox 2.0 mM, intra-assay precision, n=16), 76499; in assay [2] (Trolox 2.0 mM, 100 μL Brij 35 per 15 mL working uroporphyrin solution, n=24), 71394.

Turning to `Oc1cc(O)c2c(c1)O[C@H](c1ccc(O)c(O)c1)[C@H](O)C2` [(−) Epicatechin, (−) epicatechin], in assay [1], the “Antioxidant Status (mM) Trolox Equivalent Calculated 1/16 Dilution” value is given as 1.00 mM and the “Antioxidant Status Trolox Equivalent (mM) of the observed individual ¼ Dilution” value came out at 4.03 ± 0.28 mM. The “Antioxidant Status Trolox Equivalent (mM ± SD)” value in assay [1] (polyphenol 0.25 mM in ethanol) is recorded as 1.62 ± 0.13 mM. Besides, the “Antioxidant Status Trolox Equivalent (mM ± SD)” value in assay [1] (polyphenol 0.5 mM in ethanol) came to 3.69 ± 0.23 mM.

For the compound `C[S+](C)[O-]` [DMSO, Dimethyl sulphoxide], in assay [1], the “Antioxidant status … High value” came to 1.2 mM; the “Antioxidant status … Low value” is recorded as 0.6 mM; the “Antioxidant status … Mean value” is recorded as 0.86 mM.

On to `O=C1O[C@H]([C@@H](O)CO)C(O)=C1O` [Vitamin C], for which the “Antioxidant Status in Trolox Equivalent (mM ± SD)” value in assay [1] (vitamin C 2.65 mM in deionized water, n=12) came out at 0.9 ± 0.1 mM; in assay [1] (vitamin C 2.65 mM in deionized water, n=12, listed as vitamin C), 0.9 mM; in assay [1] (vitamin C 5.30 mM in deionized water, n=12) it was 1.8 ± 0.1 mM; in assay [1] (vitamin C 5.30 mM in deionized water, n=12, listed as vitamin C), 1.8 mM; in assay [1] (vitamin C 10.6 mM in deionized water, outside standard curve range, n=12), 4.0 ± 0.2 mM; in assay [1] (vitamin C 10.6 mM in deionized water, outside standard curve range, n=12, listed as vitamin C), 4.0 mM.

For (±) catechin, the “Antioxidant Status Trolox Equivalent (mM ± SD)” value was 1.60 ± 0.07 mM in assay [1] (polyphenol 0.25 mM in ethanol) and 3.47 ± 0.19 mM in assay [1] (polyphenol 0.5 mM in ethanol).

`O=C(O)c1cc(O)c(O)c(O)c1` [Gallic acid]: in assay [1], the “Antioxidant Status (mM) Trolox Equivalent Calculated 1/16 Dilution” value is on record as 0.45 mM and the “Antioxidant Status Trolox Equivalent (mM) of the observed individual ¼ Dilution” value stood at 1.75 ± 0.11 mM. Further, in assay [1] (polyphenol 0.25 mM in ethanol), the “Antioxidant Status Trolox Equivalent (mM ± SD)” value was found to be 0.46 ± 0.07 mM. Moreover, the “Antioxidant Status Trolox Equivalent (mM ± SD)” value in assay [1] (polyphenol 0.5 mM in ethanol) came out at 1.22 ± 0.17 mM.

Take `Cn1c(=O)c2c(ncn2C)n(C)c1=O` [caffeine]: the “mean antioxidant status in Trolox equivalent” value in assay [1] (caffeine 9.6 mmol/L in phosphate buffer) was 0.2 mM.

Regarding Albumin, the “Antioxidant Capacity in Trolox Equivalent (mM ± SD)” value in assay [1] (albumin 20 g/L in phosphate buffer, n=12) is 1.2 mM and 1.2 ± 0.1 mM; in assay [1] (albumin 40 g/L in phosphate buffer, n=12) it was 2.4 mM and 2.4 ± 0.1 mM.

With Vitamin A, the “Antioxidant Status in Trolox Equivalent (mM ± SD)” value in assay [1] (vitamin A 1940 μM in isopropanol, n=10) amounted to 0.6 ± 0.1 mM; in assay [1] (vitamin A 1940 μM in isopropanol, n=10, listed as vitamin A), 0.56 mM; in assay [1] (vitamin A 3880 μM in isopropanol, n=10), 1.1 ± 0.1 mM; in assay [1] (vitamin A 3880 μM in isopropanol, n=10, listed as vitamin A), 1.11 mM; in assay [1] (vitamin A 5820 μM in isopropanol, n=10) it was 1.4 ± 0.1 mM; in assay [1] (vitamin A 5820 μM in isopropanol, n=10, listed as vitamin A), 1.41 mM.

In the case of `CC(C)=O` [Acetone], in assay [1], the “antioxidant activity” value is recorded as “no antioxidant activity”; the “Antioxidant status … High value” was 0.2 mM; the “Antioxidant status … Low value” is 0.0 mM; the “Antioxidant status … Mean value” was determined as 0.08 mM.
